Source: patent US20160185797A1, “ALKYNYL ALCOHOLS AND METHODS OF USE” (Genentech, Inc., priority 2013, published 2016)
Where two headings read alike, the source gives them in different places.

Experiments:
[1] = tested on: p52 (NF-kB2) nuclear translocation in HeLa cells; test: p52 (NF-kB2) nuclear translocation assay in HeLa cells, anti-lymphotoxin beta receptor antibody stimulated (non-classical NF-kB signaling), high content imaging; assay type: cell-based; conditions: 100 ng/mL anti-lymphotoxin beta receptor antibody for 5 hours, read-out: p52 HeLa Transloc Assay (IC50)
Method: (§1) Several assays were developed to profile the cellular activities of NIK inhibitors.
(§2) (2) A second set of cell assay are used to define the selectivity of NIK inhibitors toward inhibition of classical vs. non-classical NF-kB signaling and rely on quantification of the nuclear translocation of p52 (NF-kB2) and REL-A (p65) using high content cellular imaging. For the p52 (non-classical NF-kB signaling) nuclear translocation assay, HeLa cells are treated with different concentrations of compounds (0.2% DMSO final) in medium containing 10% fetal bovine serum and then stimulated with 100 ng/mL of an anti-lymphotoxin beta receptor antibody (R&D Systems) for 5 hours. In the REL-A nuclear translocation assay, HeLa cells are incubated with compounds (0.2% DMSO final) for 4.5 hours in medium containing 10% fetal bovine serum before stimulating them with 10 ng/mL tumor necrosis factor (TNF)-α (R&D Systems) for 30 minutes. Cells are fixed with 4% paraformaldehyde, permeabilized by adding 0.1% Triton X-100 in phosphate buffered saline, and then are incubated with either 2 ug/mL anti-p52 antibody (Millipore) or 400 ng/mL anti-REL-A (p65) antibody (Santa Cruz Biotechnology). Finally, the cells are incubated with an Alexa488-labeled secondary antibody (Invitrogen) and DRAQ5 DNA stain (Biostatus). Imaging is carried out using an Opera reader (Perkin Elmer) and data are analyzed with the aid of Acapella software (Perkin Elmer). The p52 or REL-Atranslocation into the nucleus is quantified by the ratio of the nuclear to cytoplasmic signal intensity. […] The compounds in listed in Table 1 have the corresponding inhibitory value (IC50 in micromolar) for NIK p52 Translocation Assay as set forth in Table 2.
(§3) The compounds in listed in Table 1 have the corresponding inhibitory values (IC50 in micromolar) for the Translocation Assays as set forth in Table 2.

[2] = target: T1, nuclear factor-kappa B (NF-kB)-inducing kinase (NIK) (Homo sapiens, UniProt Q99558); test: NIK enzyme inhibition assay (Transcreener ADP fluorescence polarization, NIK ADP-FP); assay type: biochemical
T1 construct: made in house; host or cells: baculovirus-infected insect cells

[3] = tested on: REL-A (p65) nuclear translocation in HeLa cells; test: REL-A (p65) nuclear translocation assay in HeLa cells, TNF-α stimulated (classical NF-kB signaling), high content imaging; assay type: cell-based; conditions: compound 4.5 h, then 10 ng/mL TNF-α for 30 minutes, read-out: REL-A HeLa Transloc Assay (IC50)
Method: as §1, §2, §3

T1 sequence (Q99558 whole entry): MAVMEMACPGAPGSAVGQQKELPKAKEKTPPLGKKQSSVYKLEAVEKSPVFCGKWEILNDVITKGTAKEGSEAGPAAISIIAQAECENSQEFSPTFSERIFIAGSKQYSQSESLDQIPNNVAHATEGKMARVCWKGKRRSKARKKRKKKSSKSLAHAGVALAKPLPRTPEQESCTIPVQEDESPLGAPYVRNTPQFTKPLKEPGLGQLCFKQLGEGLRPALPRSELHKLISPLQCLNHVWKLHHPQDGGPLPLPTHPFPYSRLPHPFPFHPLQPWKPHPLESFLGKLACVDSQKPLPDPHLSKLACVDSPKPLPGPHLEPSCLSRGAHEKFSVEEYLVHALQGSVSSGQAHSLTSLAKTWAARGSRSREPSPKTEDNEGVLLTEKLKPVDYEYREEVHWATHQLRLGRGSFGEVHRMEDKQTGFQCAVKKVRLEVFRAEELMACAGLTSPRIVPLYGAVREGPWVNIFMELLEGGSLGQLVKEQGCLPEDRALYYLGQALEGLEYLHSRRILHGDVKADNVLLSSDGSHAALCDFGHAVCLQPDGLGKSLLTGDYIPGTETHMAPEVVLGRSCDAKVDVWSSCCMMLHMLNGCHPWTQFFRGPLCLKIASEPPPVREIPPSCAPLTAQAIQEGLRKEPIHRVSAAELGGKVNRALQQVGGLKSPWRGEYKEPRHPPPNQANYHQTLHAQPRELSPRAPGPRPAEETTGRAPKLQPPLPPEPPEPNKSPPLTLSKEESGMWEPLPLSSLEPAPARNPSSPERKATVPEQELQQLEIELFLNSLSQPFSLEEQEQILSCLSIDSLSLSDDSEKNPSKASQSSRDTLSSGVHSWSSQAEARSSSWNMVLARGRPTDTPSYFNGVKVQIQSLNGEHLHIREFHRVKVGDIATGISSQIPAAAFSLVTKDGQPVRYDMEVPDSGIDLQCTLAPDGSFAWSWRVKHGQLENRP

Q: For `CN1CC[C@@](O)(C#Cc2cccc(-c3nc(C(N)=O)c4cccc(F)c4n3)c2)C1=O` [Example 41, 8-fluoro-2-[3-[2-[(3R)-3-hydroxy-1-methyl-2-oxo-pyrrolidin-3-yl]ethynyl]phenyl]quinazoline-4-carboxamide], which IC50 ([1]; Homo sapiens) is on record?
A: 26.4 nM

Q: And the Ki [2]?
A: 0.22 nM

Q: And the IC50 ([3]; Homo sapiens, HeLa)?
A: > 20000 nM

Q: With `CN1CC[C@@](O)(C#Cc2cccc(-c3nc(C(N)=O)c4cnn(C)c4n3)c2)C1=O` [Example 42, 6-(3-[2-[(3R)-3-hydroxy-1-methyl-2-oxopyrrolidin-3-yl]ethynyl]phenyl)-1-methyl-1H-pyrazolo[3,4-d] pyrimidine-4-carboxamide] as the compound, how does the IC50 ([1]; Homo sapiens) read?
A: 10.9 nM

Q: What about the Ki [2] of the same compound?
A: 0.1 nM

Q: What about the IC50 ([3]; Homo sapiens, HeLa) of the same compound?
A: > 20000 nM

Q: How did the IC50 ([1]; Homo sapiens) turn out when `CN1CC[C@@](O)(C#Cc2cccc(-c3nc(C(N)=O)cc(N4CC[C@@H]4c4cccs4)n3)c2)C1=O` [Example 26, 2-[3-[2-[(3R)-3-hydroxy-1-methyl-2-oxo-pyrrolidin-3-yl]ethynyl]phenyl]-6-[(2R)-2-(2-thienyl)azetidin-1-yl] pyrimidine-4-carboxamide] was run?
A: 110 nM

Q: What about the Ki [2] of the same compound?
A: 4.85 nM

Q: What about the IC50 ([3]; Homo sapiens, HeLa) of the same compound?
A: > 20000 nM

Q: Which IC50 ([1]; Homo sapiens) does the source give for `Cc1cc(C(N)=O)nc(-c2cc(C#C[C@]3(O)CCN(C)C3=O)ccc2F)c1` [Example 158, 6-[2-fluoro-5-[2-[(3R)-3-hydroxy-1-methyl-2-oxo-pyrrolidin-3-yl]ethynyl]phenyl]-4-methyl-pyridine-2-carboxamide] here?
A: 63 nM

Q: What about the Ki [2] of the same compound?
A: 0.06 nM

Q: What about the IC50 ([3]; Homo sapiens, HeLa) of the same compound?
A: > 2000 nM

Q: With `CN1CC[C@@](O)(C#Cc2cccc(-c3ncc(NC4CC4)c(C(N)=O)n3)c2)C1=O` [Example 87, 5-(cyclopropylamino)-2-[3-[2-[(3R)-3-hydroxy-1-methyl-2-oxo-pyrrolidin-3-yl]ethynyl]phenyl] pyrimidine-4-carboxamide] as the compound, how does the IC50 ([1]; Homo sapiens) read?
A: 4 nM

Q: What about the Ki [2] of the same compound?
A: 0.14 nM

Q: And the IC50 ([3]; Homo sapiens, HeLa)?
A: 1000 nM

Q: What does the source list for `CN1CC[C@@](O)(C#Cc2cccc(-c3cc(OC4COC4)cc(C(N)=O)n3)c2)C1=O` [Example 122, 6-[3-[2-[(3R)-3-hydroxy-1-methyl-2-oxo-pyrrolidin-3-yl]ethynyl]phenyl]-4-(oxetan-3-yloxy) pyridine-2-carboxamide]?
A: IC50 ([1]; Homo sapiens): 226 nM; Ki [2]: 0.81 nM; IC50 ([3]; Homo sapiens, HeLa): ≥ 2000 nM

Q: `CCn1nccc1-c1cc(C(N)=O)nc(-c2cccc(C#C[C@]3(O)CCN(C)C3=O)c2)n1` [Example 67, 6-(2-ethylpyrazol-3-yl)-2-[3-[2-[(3R)-3-hydroxy-1-methyl-2-oxo-pyrrolidin-3-yl]ethynyl]phenyl] pyrimidine-4-carboxamide] was tested. Which IC50 [1] did it give?
A: 21.8 nM

Q: What about the Ki ([2]; purified NIK 0.5 nM, 10 μM ATP, pH 7.2, Ki from Morrison's quadratic equation) of the same compound?
A: 0.08 nM

Q: And the IC50 [3]?
A: ≥ 20000 nM

Q: `CN1CC[C@@](O)(C#Cc2ccc(F)c(-c3cccc(C(N)=O)n3)c2)C1=O` [Example 92, 6-[2-fluoro-5-[2-[(3R)-3-hydroxy-1-methyl-2-oxo-pyrrolidin-3-yl]ethynyl]phenyl]pyridine-2-carboxamide] was tested. Which IC50 ([1]; Homo sapiens) did it give?
A: 133 nM

Q: What about the Ki [2] of the same compound?
A: 0.39 nM

Q: What about the IC50 ([3]; Homo sapiens, HeLa) of the same compound?
A: ≥ 20000 nM

Q: With `CN1CC[C@@](O)(C#Cc2cccc(-c3nc(C(N)=O)cc(N4CCCC45COC5)n3)c2)C1=O` [Example 21, 2-[3-[2-[(3R)-3-hydroxy-1-methyl-2-oxo-pyrrolidin-3-yl]ethynyl]phenyl]-6-(2-oxa-8-azaspiro[3.4]octan-8-yl) pyrimidine-4-carboxamide] as the compound, how does the IC50 ([1]; Homo sapiens) read?
A: 84.2 nM

Q: And the Ki [2]?
A: 1.2 nM

Q: What about the IC50 ([3]; Homo sapiens, HeLa) of the same compound?
A: > 20000 nM

Q: With `CN1CC[C@@](O)(C#Cc2cccc(-c3nc(C(N)=O)nc4c3ccn4C)c2)C1=O` [Example 50, 4-[3-[2-[(3R)-3-hydroxy-1-methyl-2-oxo-pyrrolidin-3-yl]ethynyl]phenyl]-7-methyl-pyrrolo[2,3-d]pyrimidine-2-carboxamide] as the compound, how does the IC50 ([1]; Homo sapiens) read?
A: 346 nM

Q: And the Ki [2]?
A: 1.08 nM

Q: What about the IC50 ([3]; Homo sapiens, HeLa) of the same compound?
A: ≥ 20000 nM

Q: With `Cc1nc(-c2cccc(C#C[C@]3(O)CCN(C)C3=O)c2)nc(C(N)=O)c1N` [Example 172, 5-amino-2-[3-[2-[(3R)-3-hydroxy-1-methyl-2-oxo-pyrrolidin-3-yl]ethynyl]phenyl]-6-methyl-pyrimidine-4-carboxamide] as the compound, how does the IC50 ([1]; Homo sapiens) read?
A: 78 nM

Q: And the Ki [2]?
A: 0.36 nM

Q: And the IC50 ([3]; Homo sapiens, HeLa)?
A: > 2000 nM

Q: What does the source list for `C[C@@H]1CCN1c1cc(C(N)=O)nc(-c2cccc(C#C[C@]3(O)CCN(C)C3=O)c2)n1` [Example 22, 2-[3-[2-[(3R)-3-hydroxy-1-methyl-2-oxo-pyrrolidin-3-yl]ethynyl]phenyl]-6-[(2R)-2-methylazetidin-1-yl]pyrimidine-4-carboxamide]?
A: IC50 ([1]; Homo sapiens): 85 nM; Ki [2]: 1.14 nM; IC50 ([3]; Homo sapiens, HeLa): > 20000 nM

Q: `Cc1cc(C(N)=O)nc(-c2ccc(F)c(C#C[C@]3(O)CCN(C)C3=O)c2)c1` [Example 164, 6-[4-fluoro-3-[2-[(3R)-3-hydroxy-1-methyl-2-oxo-pyrrolidin-3-yl]ethynyl]phenyl]-4-methyl-pyridine-2-carboxamide] was tested. Which IC50 ([1]; Homo sapiens) did it give?
A: 62 nM

Q: And the Ki [2]?
A: < 0.05 nM

Q: What about the IC50 ([3]; Homo sapiens, HeLa) of the same compound?
A: > 2000 nM

Q: `CN1CC[C@@](O)(C#Cc2cccc(-c3nc(C(N)=O)cc(-c4cncn4C)n3)c2)C1=O` [Example 66, 2-[3-[2-[(3R)-3-hydroxy-1-methyl-2-oxo-pyrrolidin-3-yl]ethynyl]phenyl]-6-(3-methylimidazol-4-yl) pyrimidine-4-carboxamide] was tested. Which IC50 ([1]; Homo sapiens) did it give?
A: 139 nM

Q: And the Ki [2]?
A: 0.16 nM

Q: What about the IC50 ([3]; Homo sapiens, HeLa) of the same compound?
A: ≥ 20000 nM

Q: For `Cc1cc(C(N)=O)nc(-c2cccc(C#C[C@]3(O)CCN(C)C3=O)c2)n1` [Example 13, 2-[3-[2-[(3R)-3-hydroxy-1-methyl-2-oxo-pyrrolidin-3-yl]ethynyl]phenyl]-6-methyl-pyrimidine-4-carboxamide], which IC50 ([1]; Homo sapiens) is on record?
A: 382 nM

Q: And the Ki [2]?
A: 0.48 nM

Q: And the IC50 ([3]; Homo sapiens, HeLa)?
A: > 20000 nM

Q: For `CN1CC[C@@](O)(C#Cc2ccc(F)c(-c3ccc(N)c(C(N)=O)n3)c2)C1=O` [Example 84, 3-amino-6-[2-fluoro-5-[2-[(3R)-3-hydroxy-1-methyl-2-oxo-pyrrolidin-3-yl]ethynyl]phenyl] pyridine-2-carboxamide], which IC50 ([1]; Homo sapiens) is on record?
A: 14.2 nM

Q: And the Ki [2]?
A: 0.05 nM

Q: What about the IC50 ([3]; Homo sapiens, HeLa) of the same compound?
A: 1000 nM

Q: With `COc1ccc2c(C(N)=O)nc(-c3cccc(C#C[C@]4(O)CCN(C)C4=O)c3)nc2c1` [Example 44, 2-(3-[2-[(3R)-3-hydroxy-1-methyl-2-oxopyrrolidin-3-yl]ethynyl]phenyl)-7-methoxyquinazoline-4-carboxamide] as the compound, how does the IC50 ([1]; Homo sapiens) read?
A: 17.5 nM

Q: And the Ki [2]?
A: 0.11 nM

Q: And the IC50 ([3]; Homo sapiens, HeLa)?
A: > 20000 nM

Q: With `CN1CC[C@@](O)(C#Cc2cccc(-c3nc(C(N)=O)cc(-c4cnccn4)n3)c2)C1=O` [Example 96, 2-[3-[2-[(3R)-3-hydroxy-1-methyl-2-oxo-pyrrolidin-3-yl]ethynyl]phenyl]-6-pyrazin-2-yl-pyrimidine-4-carboxamide] as the compound, how does the IC50 ([1]; Homo sapiens) read?
A: 34.7 nM

Q: What about the Ki [2] of the same compound?
A: 0.45 nM

Q: And the IC50 ([3]; Homo sapiens, HeLa)?
A: ≥ 20000 nM

Q: What does the source list for `COCCNc1ccc(-c2cc(C#C[C@]3(O)CCN(C)C3=O)ccc2F)nc1C(N)=O` [Example 86, 6-[2-fluoro-5-[2-[(3R)-3-hydroxy-1-methyl-2-oxo-pyrrolidin-3-yl]ethynyl]phenyl]-3-(2-methoxyethylamino) pyridine-2-carboxamide]?
A: IC50 ([1]; Homo sapiens): 6.27 nM; Ki [2]: 0.1 nM; IC50 ([3]; Homo sapiens, HeLa): ≥ 20000 nM

Q: `CN1CC[C@@](O)(C#Cc2cccc(-c3nc(C(N)=O)nc4ccsc34)c2)C1=O` [Example 36, 4-[3-[2-[(3R)-3-hydroxy-1-methyl-2-oxo-pyrrolidin-3-yl]ethynyl]phenyl]thieno[3,2-d]pyrimidine-2-carboxamide] was tested. Which IC50 ([1]; Homo sapiens) did it give?
A: 314 nM

Q: And the Ki [2]?
A: 0.184 nM

Q: And the IC50 ([3]; Homo sapiens, HeLa)?
A: > 20000 nM

Q: `CN1CC[C@@](O)(C#Cc2cccc(-c3nc4c(c(C(N)=O)n3)CC(C)(C)CC4)c2)C1=O` [Example 35, 2-[3-[2-[(3R)-3-hydroxy-1-methyl-2-oxo-pyrrolidin-3-yl]ethynyl]phenyl]-6,6-dimethyl-7,8-dihydro-5H-quinazoline-4-carboxamide] was tested. Which IC50 ([1]; Homo sapiens) did it give?
A: 386 nM

Q: What about the Ki [2] of the same compound?
A: 2.23 nM

Q: And the IC50 ([3]; Homo sapiens, HeLa)?
A: > 20000 nM

Q: How did the IC50 ([1]; Homo sapiens) turn out when `CN1CC[C@@](O)(C#Cc2cccc(-c3nc(C(N)=O)c(NCC(F)(F)F)cc3F)c2)C1=O` [Example 83, 5-fluoro-6-[3-[2-[(3R)-3-hydroxy-1-methyl-2-oxo-pyrrolidin-3-yl]ethynyl]phenyl]-3-(2,2,2-trifluoroethylamino) pyridine-2-carboxamide] was run?
A: 11 nM

Q: And the Ki [2]?
A: 0.15 nM

Q: And the IC50 ([3]; Homo sapiens, HeLa)?
A: 1000 nM

Q: What does the source list for `CN1CCC[C@@](O)(C#Cc2cccc(-c3nc(C(N)=O)c(N)cc3F)c2)C1=O` [Example 131, 3-amino-5-fluoro-6-[3-[2-[(3R)-3-hydroxy-1-methyl-2-oxo-3-piperidyl]ethynyl]phenyl]pyridine-2-carboxamide]?
A: IC50 ([1]; Homo sapiens): 142 nM; Ki [2]: 1.06 nM; IC50 ([3]; Homo sapiens, HeLa): ≥ 2000 nM
